In article PMC10175918 (Communications Biology, 2023):
Where two headings read alike, the source gives them in different places.

Key:
Experiment in all cases: TGFα-shedding assay-based GPCR screening with chimeric Gα subunit proteins
Assay type in all cases: cell-based
348 GPCRs [1] = target: T1, 348 GPCRs (Homo sapiens, UniProt P30968); conditions: 10µM, Favipiravir 100μM
T1 construct: expressed in transfected cells; host or cells: HEK293A
T1 sequence (P30968 1-328): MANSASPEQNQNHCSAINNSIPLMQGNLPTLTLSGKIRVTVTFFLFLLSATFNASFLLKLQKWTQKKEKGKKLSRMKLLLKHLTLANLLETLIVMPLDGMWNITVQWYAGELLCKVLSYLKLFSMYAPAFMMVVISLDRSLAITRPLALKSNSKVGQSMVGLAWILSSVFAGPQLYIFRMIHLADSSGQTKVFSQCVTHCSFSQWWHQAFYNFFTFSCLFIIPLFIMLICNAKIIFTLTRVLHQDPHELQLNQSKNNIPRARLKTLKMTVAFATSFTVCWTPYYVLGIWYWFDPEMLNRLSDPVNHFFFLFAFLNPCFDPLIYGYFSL

348 GPCRs [2] = target: T2, 348 GPCRs (Homo sapiens, UniProt P49190); conditions: 10µM, Favipiravir 100μM
T2 construct: expressed in transfected cells; host or cells: HEK293A
T2 sequence (P49190 25-550): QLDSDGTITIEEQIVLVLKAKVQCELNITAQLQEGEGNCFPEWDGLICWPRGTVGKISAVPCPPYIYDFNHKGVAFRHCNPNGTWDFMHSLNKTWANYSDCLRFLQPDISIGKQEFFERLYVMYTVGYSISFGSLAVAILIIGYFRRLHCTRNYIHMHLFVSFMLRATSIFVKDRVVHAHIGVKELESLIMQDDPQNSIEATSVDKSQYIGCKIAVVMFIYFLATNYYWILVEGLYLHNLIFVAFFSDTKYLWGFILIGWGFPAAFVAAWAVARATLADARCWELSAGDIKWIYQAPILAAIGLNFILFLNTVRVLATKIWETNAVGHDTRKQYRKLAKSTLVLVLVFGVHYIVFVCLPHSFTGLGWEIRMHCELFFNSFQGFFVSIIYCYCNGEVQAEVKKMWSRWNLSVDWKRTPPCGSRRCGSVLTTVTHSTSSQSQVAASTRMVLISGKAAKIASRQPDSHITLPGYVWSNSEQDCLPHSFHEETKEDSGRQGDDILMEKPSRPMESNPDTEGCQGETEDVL

348 GPCRs [3] = target: T3, 348 GPCRs (Homo sapiens, UniProt P49682)
T3 construct: expressed in transfected cells; host or cells: HEK293A
T3 sequence (P49682 1-368): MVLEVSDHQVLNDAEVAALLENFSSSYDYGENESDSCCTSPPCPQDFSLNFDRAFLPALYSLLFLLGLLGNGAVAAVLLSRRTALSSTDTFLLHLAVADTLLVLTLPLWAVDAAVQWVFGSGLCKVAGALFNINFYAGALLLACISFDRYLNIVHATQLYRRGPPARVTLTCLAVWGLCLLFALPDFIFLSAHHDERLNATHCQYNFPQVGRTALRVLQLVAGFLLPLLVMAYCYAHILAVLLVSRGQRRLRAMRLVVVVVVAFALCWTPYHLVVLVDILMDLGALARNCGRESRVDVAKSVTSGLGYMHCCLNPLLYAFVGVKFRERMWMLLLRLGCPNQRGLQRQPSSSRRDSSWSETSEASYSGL

348 GPCRs [4] = target: T4, 348 GPCRs (Homo sapiens, UniProt Q15391)
T4 construct: expressed in transfected cells; host or cells: HEK293A
T4 sequence (Q15391 1-338): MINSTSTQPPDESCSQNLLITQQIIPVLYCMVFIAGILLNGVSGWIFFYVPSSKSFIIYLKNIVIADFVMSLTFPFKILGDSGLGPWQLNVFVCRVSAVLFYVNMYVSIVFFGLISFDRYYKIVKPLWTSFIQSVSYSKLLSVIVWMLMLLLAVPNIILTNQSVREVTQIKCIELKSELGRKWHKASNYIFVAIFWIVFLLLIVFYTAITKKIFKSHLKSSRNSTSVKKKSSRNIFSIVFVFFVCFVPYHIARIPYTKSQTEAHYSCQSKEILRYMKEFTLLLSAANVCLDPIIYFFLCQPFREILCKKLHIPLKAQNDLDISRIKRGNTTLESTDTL

348 GPCRs [5] = target: T5, 348 GPCRs (Homo sapiens, UniProt Q8IWK6); conditions: 10µM, Favipiravir 100μM
T5 construct: expressed in transfected cells; host or cells: HEK293A
T5 sequence (Q8IWK6 34-1321): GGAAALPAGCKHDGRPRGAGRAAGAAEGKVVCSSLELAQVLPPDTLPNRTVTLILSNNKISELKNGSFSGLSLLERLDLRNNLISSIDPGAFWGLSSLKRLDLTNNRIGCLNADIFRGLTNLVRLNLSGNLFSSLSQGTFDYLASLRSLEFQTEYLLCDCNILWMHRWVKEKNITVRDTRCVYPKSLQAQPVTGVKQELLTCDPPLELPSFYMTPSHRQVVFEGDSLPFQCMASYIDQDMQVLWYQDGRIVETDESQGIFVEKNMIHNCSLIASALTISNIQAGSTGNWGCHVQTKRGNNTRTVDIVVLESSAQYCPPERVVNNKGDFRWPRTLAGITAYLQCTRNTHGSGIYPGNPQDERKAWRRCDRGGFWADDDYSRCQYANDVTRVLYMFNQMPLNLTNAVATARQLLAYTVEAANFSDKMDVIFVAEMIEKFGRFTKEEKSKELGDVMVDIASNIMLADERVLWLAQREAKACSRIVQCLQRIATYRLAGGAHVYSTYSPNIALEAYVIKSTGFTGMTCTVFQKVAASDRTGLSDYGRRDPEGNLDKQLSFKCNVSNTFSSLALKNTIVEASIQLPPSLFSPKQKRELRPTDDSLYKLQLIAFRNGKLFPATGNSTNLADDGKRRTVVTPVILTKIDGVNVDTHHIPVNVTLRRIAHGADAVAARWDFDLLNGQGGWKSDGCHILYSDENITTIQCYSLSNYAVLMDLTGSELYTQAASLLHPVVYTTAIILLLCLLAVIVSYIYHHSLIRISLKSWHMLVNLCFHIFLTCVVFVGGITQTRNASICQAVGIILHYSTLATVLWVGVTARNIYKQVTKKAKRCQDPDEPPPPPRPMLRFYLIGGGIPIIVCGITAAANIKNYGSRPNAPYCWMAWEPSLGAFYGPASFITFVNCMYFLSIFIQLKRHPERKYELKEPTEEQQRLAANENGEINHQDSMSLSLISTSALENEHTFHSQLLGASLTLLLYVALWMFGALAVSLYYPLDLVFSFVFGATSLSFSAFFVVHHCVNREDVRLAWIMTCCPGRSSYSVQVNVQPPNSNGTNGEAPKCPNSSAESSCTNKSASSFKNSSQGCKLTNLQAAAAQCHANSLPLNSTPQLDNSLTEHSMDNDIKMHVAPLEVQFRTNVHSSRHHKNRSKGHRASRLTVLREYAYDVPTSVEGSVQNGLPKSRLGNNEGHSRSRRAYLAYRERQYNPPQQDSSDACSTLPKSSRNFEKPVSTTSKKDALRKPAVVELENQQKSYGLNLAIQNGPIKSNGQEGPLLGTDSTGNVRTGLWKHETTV

[6] = read-out: % GPCR activation compared to TPA, GNRHR (gonadotropin releasing hormone receptor)
[7] = read-out: % GPCR activation compared to TPA, PTH2R (parathyroid hormone 2 receptor)
[8] = read-out: % GPCR activation compared to TPA, GPCR CXCR3 (C-X-C motif chemokine receptor 3)
[9] = read-out: % GPCR activation compared to TPA, GPCR P2Y14 (purinergic receptor P2Y, G-protein coupled, 14)
[10] = read-out: % GPCR activation compared to TPA, GPR125 (Adhesion G Protein-Coupled Receptor A2 (ADGRA3))
[11] = GNRHR (gonadotropin releasing hormone receptor), read-out: % GPCR activation compared to TPA
[12] = PTH2R (parathyroid hormone 2 receptor), read-out: % GPCR activation compared to TPA
[13] = GPCR CXCR3 (C-X-C motif chemokine receptor 3), read-out: % GPCR activation compared to TPA
[14] = GPCR P2Y14 (purinergic receptor P2Y, G-protein coupled, 14), read-out: % GPCR activation compared to TPA
[15] = GPR125 (Adhesion G Protein-Coupled Receptor A2 (ADGRA3)), read-out: % GPCR activation compared to TPA

activation at 10 µM (348 GPCRs [1]; [11]) [%]	activation at 100 µM (348 GPCRs [2]; [12]) [%]	activation at 10 µM (348 GPCRs [3]; [13]) [%]	activation at 10 µM (348 GPCRs [4]; [14]) [%]	activation at 10 µM (348 GPCRs [5]; [15]) [%]	activation at 100 µM (348 GPCRs [3]; GPCR CXCR3 (C-X-C motif chemokine receptor 3), 100μM, read-out: % GPCR activation compared to TPA) [%]	activation at 100 µM (348 GPCRs [4]; GPCR P2Y14 (purinergic receptor P2Y, G-protein coupled, 14), 100μM, read-out: % GPCR activation compared to TPA) [%]	SMILES	activation at 10 µM (348 GPCRs [1]; [6]) [%]	activation at 100 µM (348 GPCRs [2]; [7]) [%]	activation at 10 µM (348 GPCRs [3]; [8]) [%]	activation at 10 µM (348 GPCRs [4]; [9]) [%]	activation at 10 µM (348 GPCRs [5]; [10]) [%]
-1.32	-0.481	-2.3	0.0147	-0.998			CC(C)C(=O)OC[C@H]1O[C@@H](n2ccc(NO)nc2=O)[C@H](O)[C@@H]1O [molnupiravir]					
-1.3	0.392			-1.96	-0.62	5.36	NC(=O)c1nc(F)cnc1O [favipiravir, 6-fluoro-3-hydroxy-2-pyrazinecarboxamide]					

The remaining lines, values behind:

SMILES	activation at 10 µM (348 GPCRs [1]; [11]) [%]	activation at 100 µM (348 GPCRs [2]; [12]) [%]	activation at 10 µM (348 GPCRs [3]; [13]) [%]	activation at 10 µM (348 GPCRs [4]; [14]) [%]	activation at 10 µM (348 GPCRs [5]; [15]) [%]	activation at 100 µM (348 GPCRs [3]; GPCR CXCR3 (C-X-C motif chemokine receptor 3), 100μM, read-out: % GPCR activation compared to TPA) [%]	activation at 100 µM (348 GPCRs [4]; GPCR P2Y14 (purinergic receptor P2Y, G-protein coupled, 14), 100μM, read-out: % GPCR activation compared to TPA) [%]	activation at 10 µM (348 GPCRs [1]; [6]) [%]	activation at 100 µM (348 GPCRs [2]; [7]) [%]	activation at 10 µM (348 GPCRs [3]; [8]) [%]	activation at 10 µM (348 GPCRs [4]; [9]) [%]	activation at 10 µM (348 GPCRs [5]; [10]) [%]
CC(C)OC(=O)[C@H](C)N[P@](=O)(OC[C@H]1O[C@@H](n2ccc(=O)[nH]c2=O)[C@](C)(F)[C@@H]1O)Oc1ccccc1 [sofosbuvir]								-0.976	-1.19	-2.03	0.966	0.926
N#C[C@@]1(c2ccc3c(N)ncnn23)O[C@H](CO)[C@@H](O)[C@H]1O [GS441524]	-3.48	-1.76	-3.08	4.97	-0.689							
CCC(CC)COC(=O)[C@H](C)N[P@](=O)(OC[C@H]1O[C@@](C#N)(c2ccc3c(N)ncnn23)[C@H](O)[C@@H]1O)Oc1ccccc1 [remdesivir]								-0.876	0.518	-0.708	8.52	-0.226
